In paper PMC6125145, “Mitochondrial Supercomplexes Do Not Enhance Catalysis by Quinone Channeling” (Cell Metabolism, 2018):

How the values were obtained:
Type in all cases: biochemical
[1] = target: T1, AOX (alternative oxidase) (Trypanosoma brucei, UniProt Q26710); assay: NADH:O2 oxidoreduction via complex I with AOX added to SMPs or CI-only proteoliposomes; conditions: quinol produced by complex I from endogenous ubiquinone or ubiquinone-10 in proteoliposomes, pH 7.5, 32 °C
T1 construct: expressed in E. coli FN102 (hemA deficient), purified in DDM and added to membranes

[2] = target: T2, complex I (CI, NADH:ubiquinone oxidoreductase) (Bos taurus, UniProt P03887+P17694+P42026); assay: reverse electron transfer (NAD+ reduction) in bovine heart SMPs, NADH absorbance; conditions: RET assay: 1 mM NAD+, 10 mM succinate, 1 mM MgATP, 50 μg/mL SMPs, pH 7.5, 32 °C, anaerobic; RET direction only, NADH oxidation not inhibited; RET also needs complex II
T2 construct: gene NDUFS2; native enzyme in coupled submitochondrial particles (inverted inner-membrane vesicles) from bovine heart mitochondria; in supercomplexes; with NADH-ubiquinone oxidoreductase 75 kDa subunit, mitochondrial; NADH dehydrogenase [ubiquinone] flavoprotein 1, mitochondrial; NADH dehydrogenase [ubiquinone] flavoprotein 2, mitochondrial; NADH dehydrogenase [ubiquinone] iron-sulfur protein 3, mitochondrial; NADH dehydrogenase [ubiquinone] iron-sulfur protein 8, mitochondrial; NADH-ubiquinone oxidoreductase chain 2; NADH-ubiquinone oxidoreductase chain 3; NADH-ubiquinone oxidoreductase chain 4; NADH-ubiquinone oxidoreductase chain 4L; NADH-ubiquinone oxidoreductase chain 5; NADH-ubiquinone oxidoreductase chain 6

[3] = target: T1, AOX (alternative oxidase); assay: NADH:O2 oxidoreduction of SMPs with added purified AOX, cyanide-insensitive rate; conditions: 300 or 500 nM ascofuranone, 0.1 mg AOX per mg SMP, 200 μM NADH, 400 μM NaCN (500 nM trace) or gramicidin (300 nM), pH 7.5, 32 °C

T1 sequence (Q26710 25-329): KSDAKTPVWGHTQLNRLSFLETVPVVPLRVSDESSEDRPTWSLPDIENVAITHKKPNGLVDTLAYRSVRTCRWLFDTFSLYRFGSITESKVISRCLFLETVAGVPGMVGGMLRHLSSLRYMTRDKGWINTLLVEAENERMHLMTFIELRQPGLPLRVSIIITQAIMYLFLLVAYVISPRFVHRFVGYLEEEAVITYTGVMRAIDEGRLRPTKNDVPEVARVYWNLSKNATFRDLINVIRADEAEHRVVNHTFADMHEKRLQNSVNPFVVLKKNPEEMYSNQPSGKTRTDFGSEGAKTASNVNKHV
T2 sequence (P17694 34-463): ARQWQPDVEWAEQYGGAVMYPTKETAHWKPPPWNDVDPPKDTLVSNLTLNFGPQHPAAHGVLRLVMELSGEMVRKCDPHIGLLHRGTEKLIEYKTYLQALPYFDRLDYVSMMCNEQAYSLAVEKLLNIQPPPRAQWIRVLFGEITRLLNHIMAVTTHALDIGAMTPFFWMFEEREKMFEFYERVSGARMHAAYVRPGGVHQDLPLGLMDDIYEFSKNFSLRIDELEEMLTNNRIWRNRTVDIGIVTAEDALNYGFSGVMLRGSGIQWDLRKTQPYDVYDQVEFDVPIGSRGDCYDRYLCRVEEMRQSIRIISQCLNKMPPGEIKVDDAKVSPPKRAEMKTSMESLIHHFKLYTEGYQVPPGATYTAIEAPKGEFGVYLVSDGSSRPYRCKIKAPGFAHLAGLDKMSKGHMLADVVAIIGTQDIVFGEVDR
T2 sequence (P03887 whole entry): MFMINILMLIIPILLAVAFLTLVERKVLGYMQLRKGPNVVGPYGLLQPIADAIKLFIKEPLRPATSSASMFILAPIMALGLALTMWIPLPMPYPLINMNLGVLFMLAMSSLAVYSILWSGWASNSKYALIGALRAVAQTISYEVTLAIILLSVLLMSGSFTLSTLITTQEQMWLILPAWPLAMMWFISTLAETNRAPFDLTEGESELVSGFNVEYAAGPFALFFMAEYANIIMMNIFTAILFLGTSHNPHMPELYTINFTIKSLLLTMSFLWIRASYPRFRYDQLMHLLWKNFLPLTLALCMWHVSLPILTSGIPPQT
T2 sequence (P42026 38-216): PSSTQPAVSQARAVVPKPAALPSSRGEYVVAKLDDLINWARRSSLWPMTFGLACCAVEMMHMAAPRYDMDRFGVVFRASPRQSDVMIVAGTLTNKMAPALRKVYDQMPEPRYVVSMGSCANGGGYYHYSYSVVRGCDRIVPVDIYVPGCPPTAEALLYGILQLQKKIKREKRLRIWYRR
T2 sequence (P25708 21-464 partner): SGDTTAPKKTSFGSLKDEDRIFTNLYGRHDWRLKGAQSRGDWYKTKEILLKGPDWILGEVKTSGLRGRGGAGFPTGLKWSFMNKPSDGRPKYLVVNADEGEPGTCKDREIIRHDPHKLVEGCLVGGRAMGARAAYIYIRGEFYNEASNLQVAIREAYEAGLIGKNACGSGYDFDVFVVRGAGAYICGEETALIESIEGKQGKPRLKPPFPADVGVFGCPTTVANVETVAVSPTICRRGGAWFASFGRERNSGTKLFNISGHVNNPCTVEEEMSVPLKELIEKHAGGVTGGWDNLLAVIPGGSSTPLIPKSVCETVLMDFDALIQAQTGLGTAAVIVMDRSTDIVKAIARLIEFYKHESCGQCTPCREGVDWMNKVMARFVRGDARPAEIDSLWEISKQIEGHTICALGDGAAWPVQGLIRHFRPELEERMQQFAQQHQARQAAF
T2 sequence (P15690 24-727 partner): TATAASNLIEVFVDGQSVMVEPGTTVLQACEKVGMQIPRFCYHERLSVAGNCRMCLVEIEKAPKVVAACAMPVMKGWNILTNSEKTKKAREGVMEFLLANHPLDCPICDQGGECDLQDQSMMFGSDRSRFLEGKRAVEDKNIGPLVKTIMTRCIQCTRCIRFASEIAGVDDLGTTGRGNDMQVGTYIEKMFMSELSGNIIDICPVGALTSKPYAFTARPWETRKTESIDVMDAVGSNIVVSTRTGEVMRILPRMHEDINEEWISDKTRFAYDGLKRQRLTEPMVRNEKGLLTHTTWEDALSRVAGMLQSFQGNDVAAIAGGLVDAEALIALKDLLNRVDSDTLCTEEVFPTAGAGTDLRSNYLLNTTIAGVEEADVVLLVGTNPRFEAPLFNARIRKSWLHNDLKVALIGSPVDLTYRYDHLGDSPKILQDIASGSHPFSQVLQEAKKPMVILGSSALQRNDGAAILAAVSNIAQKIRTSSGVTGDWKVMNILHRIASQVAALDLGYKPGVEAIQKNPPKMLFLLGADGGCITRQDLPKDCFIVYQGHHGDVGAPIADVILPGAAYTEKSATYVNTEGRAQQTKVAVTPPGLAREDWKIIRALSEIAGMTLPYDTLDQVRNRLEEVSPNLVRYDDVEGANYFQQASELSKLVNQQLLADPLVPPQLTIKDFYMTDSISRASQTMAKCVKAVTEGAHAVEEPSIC

| SMILES | NADH:O2 oxidoreduction via complex I with AOX added to SMPs or CI-only proteolip [1] | IC50 [2] | NADH:O2 oxidoreduction of SMPs with added purified AOX, cyanide-insensitive rate [3] |
| --- | --- | --- | --- |
| COc1c(O)c(C)c(C/C=C(\C)CC/C=C(\C)CC/C=C(\C)CC/C=C(\C)CC/C=C(\C)CC/C=C(\C)CC/C=C(\C)CC/C=C(\C)CC/C=C(\C)CCC=C(C)C)c(O)c1OC [quinol] | also observed in synthetic, CI-only proteoliposomes containing ubiquinone-10 | – | – |
| C/C(=C\Cc1c(O)c(Cl)c(C)c(C=O)c1O)CC/C=C(\C)[C@@H]1CC(=O)C(C)(C)O1 [ascofuranone] | – | 440 ± 40 nM | AOX-catalyzed quinol oxidation is insensitive to cyanide |
